In patent US20140161897A1, “METHOD FOR TREATING CANCERS, SUCH AS MYELOMA AND BREAST CANCER, WITH A COMBINATION OF TBL-12 AND VELCADE” (priority 2012, published 2014) one finds IC50 data, which are given here for one compound.

The test system of this experiment is human myeloma cells (U266, MM1, KMS1, and APR1). As to the kind of experiment: MTT cell survival of IL-6 or TNFα stimulated myeloma cells. In kind it is cell-based. The settings on record: U-266, with constant TBL-12 100 ug/ml, read-out: IC50 for Velcade, in combination with the TBL-12. The procedure:
Different human myeloma cells (U266, MM1, KMS1, and APR1), which are commercially available were cultured in standard 96 well plates using standard methods to exponential growth face. The cells were stimulated by either 1L-6 (5 ng/ml), or TNFα (5 ng/ml).
The cells were then contacted with a combination of a constant concentration of TBL-12 (100 ug/ml), either by itself, or with various concentration of Velcade (2.5, 5, 10, and 15 ng). Cells which received neither TBL-12 nor Velcade were used as a control. Cell survival was measured, using an MTT assay, at 24, 48, and 72 hours.

With `CC(C)C[C@H](NC(=O)[C@H](Cc1ccccc1)NC(=O)c1cnccn1)B(O)O` [Velcade, Bortezomib], the IC50 (usually the concentration needed to halve the response being measured) is approximately 5 ng/mL.
